Source: patent US20240279241A1, “PYRIDO[4,3-D]PYRIMIDINE COMPOUNDS CAPABLE OF INHIBITING KRAS MUTANT PROTEINS” (Redx Pharma PLC, priority 2021, published 2024)
pIC50: −log10 of the molar value. Where two headings read alike, the source gives them in different places.

Experiments:
Type in all cases: biochemical
[1] = molecular target: T1, KRAS G12D (Homo sapiens, UniProt P01116, G12D); assay: HTRF nucleotide exchange assay (NEA), KRAS G12D; settings: recombinant human KRAS G12D aa1-188, 2 nM; lowest class = % inhibition at 10 μM
T1 construct: Recombinant human RAS protein (2 nM)
In short: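 Compound binding to KRAS G12D was measured by HTRF nucleotide exchange. Recombinant human KRAS G12D (aa1-188, N-terminal 6×His-tag, 2 nM) and 2 nM Europium anti-6×His antibody were combined with compound in 5 uL assay buffer in 384-well plates for 60 minutes at room temperature, then 5 ul of 200 nM EDA-GTP-DY647P1 was added for 30 minutes before time-resolved fluorescence reading.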

[2] = molecular target: T2, KRAS WT (Homo sapiens, UniProt P01116); assay: HTRF nucleotide exchange assay (NEA), KRAS WT
T2 construct: Recombinant human RAS protein (2 nM); aa1-188 KRAS WT
In short: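 TR-FRET readout; IC50 by four-parameter logistic fit, ≥2 replicates. Protein: N-terminal 6×His KRAS aa1-188, 2 nM for WT/G13D, 4 nM for G12C/G12S, with 2 nM Eu anti-His. Compound pre-incubation 60 min RT, then fluorescent GTP analog (added as 200 nM solution), 30 min RT.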

[3] = molecular target: T3, KRAS G12C (Homo sapiens, UniProt P01116, G12C); assay: HTRF nucleotide exchange assay (NEA), KRAS G12C
T3 construct: 4 nM KRAS; aa1-188 containing the G12V, G12C, G12A or G12S amino acid substitution
Experimental: (§1) The capacity of compounds to bind KRAS G12D, other KRAS mutants and wildtype RAS isoforms was quantified using a HTRF nucleotide exchange assay. Recombinant human RAS protein (2 nM; aa1-188 KRAS WT, HRAS WT, NRAS WT, or KRAS containing the containing the G12D, G13D or Q61H amino acid substitutions, or 4 nM KRAS; aa1-188 containing the G12V, G12C, G12A or G12S amino acid substitution, an N-terminal 6×His-tag and leader sequence), and 2 nM Europium-labeled anti-6×His antibody were mixed in assay buffer (10 mM HEPES pH7.3, 150 mM NaCl, 5 mM MgCl2, 0.05% BSA, 0.0025% NP-40 and 100 mM KF) with various concentrations of compound in a 384-well plate and a volume of 5 uL. After a 60-minute incubation at room temperature, 5 ul of 200 nM EDA-GTP-DY647P1 (diluted in assay buffer) was added to the plate. Following 30-minute incubation at room temperature, time-resolved fluorescence was measured on a PerkinElmer Envision plate reader. DMSO (0.3%) and unlabeled […] (1 μM) or equivalent tool compound were used to generate the Max and Min assay signals, respectively. Data was analysed using a four-parameter logistic model to calculate IC50 values, with at least two independent replicates were performed for each compound.

[4] = molecular target: T4, KRAS G12V (Homo sapiens, UniProt P01116, G12V); assay: HTRF nucleotide exchange assay (NEA), KRAS G12V
T4 construct: 4 nM KRAS; aa1-188 containing the G12V, G12C, G12A or G12S amino acid substitution
Experimental: as §1

[5] = molecular target: T5, KRAS G12S (Homo sapiens, UniProt P01116, G12S); assay: HTRF nucleotide exchange assay (NEA), KRAS G12S
T5 construct: 4 nM KRAS; aa1-188 containing the G12V, G12C, G12A or G12S amino acid substitution
Experimental: as §1

[6] = molecular target: T6, KRAS G12A (Homo sapiens, UniProt P01116, G12A); assay: HTRF nucleotide exchange assay (NEA), KRAS G12A
T6 construct: 4 nM KRAS; aa1-188 containing the G12V, G12C, G12A or G12S amino acid substitution
Experimental: as §1

[7] = molecular target: T7, KRAS G13D (Homo sapiens, UniProt P01116, G13D); assay: HTRF nucleotide exchange assay (NEA), KRAS G13D; settings: recombinant human KRAS G13D aa1-188, 2 nM; lowest class = % inhibition at 10 μM
T7 construct: Recombinant human RAS protein (2 nM); aa1-188 KRAS WT
Experimental: as §1

[8] = recombinant human KRAS G12S aa1-188, 4 nM, lowest class = % inhibition at 10 μM

T4 sequence (P01116 1-188 isoform P01116-2 G12V): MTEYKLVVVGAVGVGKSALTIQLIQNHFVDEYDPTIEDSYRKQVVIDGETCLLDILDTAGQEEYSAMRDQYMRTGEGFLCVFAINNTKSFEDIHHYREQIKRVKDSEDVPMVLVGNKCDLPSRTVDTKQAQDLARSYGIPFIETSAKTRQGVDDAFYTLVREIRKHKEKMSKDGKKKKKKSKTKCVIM
T7 sequence (P01116 1-188 isoform P01116-2 G13D): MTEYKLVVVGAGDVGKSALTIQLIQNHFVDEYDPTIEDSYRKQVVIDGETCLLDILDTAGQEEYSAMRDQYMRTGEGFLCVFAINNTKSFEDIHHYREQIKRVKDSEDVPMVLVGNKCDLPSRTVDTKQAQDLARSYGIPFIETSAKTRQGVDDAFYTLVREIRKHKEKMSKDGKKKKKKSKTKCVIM
T5 sequence (P01116 1-188 isoform P01116-2 G12S): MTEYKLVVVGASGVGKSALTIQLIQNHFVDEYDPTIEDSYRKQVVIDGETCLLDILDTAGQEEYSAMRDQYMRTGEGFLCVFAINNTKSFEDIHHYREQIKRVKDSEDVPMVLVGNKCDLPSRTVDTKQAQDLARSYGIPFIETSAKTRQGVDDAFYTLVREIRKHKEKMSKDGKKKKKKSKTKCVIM
T3 sequence (P01116 1-188 isoform P01116-2 G12C): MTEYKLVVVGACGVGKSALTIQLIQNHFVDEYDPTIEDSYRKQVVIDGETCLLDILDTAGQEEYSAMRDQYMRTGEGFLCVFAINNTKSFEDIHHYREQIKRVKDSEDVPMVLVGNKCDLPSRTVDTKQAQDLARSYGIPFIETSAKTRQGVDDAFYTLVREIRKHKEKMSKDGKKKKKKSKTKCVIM
T1 sequence (P01116 1-188 isoform P01116-2 G12D): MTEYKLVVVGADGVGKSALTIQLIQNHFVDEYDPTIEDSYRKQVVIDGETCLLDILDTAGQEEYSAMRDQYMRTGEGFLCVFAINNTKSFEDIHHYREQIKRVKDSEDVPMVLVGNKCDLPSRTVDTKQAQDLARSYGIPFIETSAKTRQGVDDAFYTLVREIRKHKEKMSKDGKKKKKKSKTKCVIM
T6 sequence (P01116 1-188 isoform P01116-2 G12A): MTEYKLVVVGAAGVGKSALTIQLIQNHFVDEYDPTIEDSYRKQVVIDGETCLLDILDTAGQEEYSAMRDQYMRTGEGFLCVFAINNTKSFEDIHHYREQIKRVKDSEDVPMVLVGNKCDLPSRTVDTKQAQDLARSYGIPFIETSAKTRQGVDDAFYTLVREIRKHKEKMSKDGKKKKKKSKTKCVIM
T2 sequence (P01116 1-188 isoform P01116-2): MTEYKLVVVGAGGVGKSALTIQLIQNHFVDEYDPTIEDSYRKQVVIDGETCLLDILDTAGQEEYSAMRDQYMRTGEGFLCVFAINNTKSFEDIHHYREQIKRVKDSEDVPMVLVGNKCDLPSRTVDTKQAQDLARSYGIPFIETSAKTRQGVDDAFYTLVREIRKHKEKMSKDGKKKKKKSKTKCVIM

Row | SMILES | pIC50 [1] | pIC50 [2] | pIC50 [3] | pIC50 [4] | pIC50 [5, 8] | pIC50 [6] | pIC50 [7] | pIC50 [5]
1 | Oc1cc(-c2ncc3c(N4CCOC5(CCCC5)C4)nc(OCC45CCCN4CCC5)nc3c2F)c2ccccc2c1 [Example 4, 4-[8-fluoro-2-(1,2,3,5,6,7-hexahydropyrrolizin-8-ylmethoxy)-4-(6-oxa-9-azaspiro[4.5]-decan-9-yl)pyrido[4,3-d]pyrimidin-7-yl]naphthalen-2-ol] | 5.00 to 7.00 | 5.00 to 7.00 | 5.00 to 7.00 | 5.00 to 7.00 | < 5.00 | 5.00 to 7.00 | < 5.00 | –
2 | Oc1cc(-c2ncc3c(NCC4CCOCC4)nc(OCC45CCCN4CCC5)nc3c2F)c2ccccc2c1 [Example 9, 4-[8-fluoro-2-(1,2,3,5,6,7-hexahydropyrrolizin-8-ylmethoxy)-4-(tetrahydropyran-4-ylmethylamino)pyrido[4,3-d]pyrimidin-7-yl]naphthalen-2-ol] | 5.00 to 7.00 | 5.00 to 7.00 | 5.00 to 7.00 | 5.00 to 7.00 | – | 5.00 to 7.00 | < 5.00 | 5.00 to 7.00
3 | Oc1cc(-c2ncc3c(N4CCCCCC4)nc(OCC45CCCN4CCC5)nc3c2F)c2ccccc2c1 [Example 17, 4-[4-(azepan-1-yl)-8-fluoro-2-(1,2,3,5,6,7-hexahydropyrrolizin-8-ylmethoxy)pyrido[4,3-d]pyrimidin-7-yl]naphthalen-2-ol] | 7.00 to 8.00 | 7.00 to 8.00 | 7.00 to 8.00 | 7.00 to 8.00 | – | 7.00 to 8.00 | – | 7.00 to 8.00
4 | O=S1(=O)CCN(c2nc(OCC34CCCN3CCC4)nc3c(F)c(-c4cc(O)cc5ccccc45)ncc23)CC1 [Example 22, 4-[4-(1,1-dioxo-1,4-thiazinan-4-yl)-8-fluoro-2-(1,2,3,5,6,7-hexahydropyrrolizin-8-ylmethoxy)pyrido[4,3-d]pyrimidin-7-yl]naphthalen-2-ol] | 5.00 to 7.00 | 5.00 to 7.00 | – | – | – | 5.00 to 7.00 | < 5.00 | 5.00 to 7.00
5 | CSCCCN(C)c1nc(OCC23CCCN2CCC3)nc2c(F)c(-c3cc(O)cc4ccccc34)ncc12 [Example 27, 4-[8-fluoro-2-(1,2,3,5,6,7-hexahydropyrrolizin-8-ylmethoxy)-4-[methyl(3-methylsulfanylpropyl)amino]pyrido[4,3-d]pyrimidin-7-yl]naphthalen-2-ol] | 5.00 to 7.00 | 5.00 to 7.00 | 5.00 to 7.00 | – | – | 5.00 to 7.00 | < 5.00 | 5.00 to 7.00
6 | COCC(C)CNc1nc(OCC23CCCN2CCC3)nc2c(F)c(-c3cc(O)cc4ccccc34)ncc12 (stereo not drawn) [Example 31, 4-[8-fluoro-2-(1,2,3,5,6,7-hexahydropyrrolizin-8-ylmethoxy)-4-[(3-methoxy-2-methyl-propyl)amino]pyrido [4,3-d]pyrimidin-7-yl]naphthalen-2-ol] | 5.00 to 7.00 | 5.00 to 7.00 | – | – | – | 5.00 to 7.00 | < 5.00 | 5.00 to 7.00
7 | COC(C)CCNc1nc(OCC23CCCN2CCC3)nc2c(F)c(-c3cc(O)cc4ccccc34)ncc12 (stereo not drawn) [Example 32, 4-[8-fluoro-2-(1,2,3,5,6,7-hexahydropyrrolizin-8-ylmethoxy)-4-(3-methoxybutylamino)pyrido[4,3-d]pyrimidin-7-yl]naphthalen-2-ol] | 5.00 to 7.00 | 5.00 to 7.00 | – | – | – | 5.00 to 7.00 | < 5.00 | 5.00 to 7.00
8 | COCC1CCN(c2nc(OCC34CCCN3CCC4)nc3c(F)c(-c4cc(O)cc5ccccc45)ncc23)C1 (stereo not drawn) [Example 33, 4-[8-fluoro-2-(1,2,3,5,6,7-hexahydropyrrolizin-8-ylmethoxy)-4-[3-(methoxymethyl)pyrrolidin-1-yl]pyrido [4,3-d]pyrimidin-7-yl]naphthalen-2-ol] | 5.00 to 7.00 | 5.00 to 7.00 | – | – | < 5.00 | 5.00 to 7.00 | < 5.00 | –
9 | Oc1cc(-c2ncc3c(NC4CCCCCC4)nc(OCC45CCCN4CCC5)nc3c2F)c2ccccc2c1 [Example 36, 4-[4-(cycloheptylamino)-8-fluoro-2-(1,2,3,5,6,7-hexahydropyrrolizin-8-ylmethoxy)pyrido [4,3-d]pyrimidin-7-yl]naphthalen-2-ol] | 5.00 to 7.00 | 5.00 to 7.00 | – | – | < 5.00 | 5.00 to 7.00 | < 5.00 | –
10 | Oc1cc(-c2ncc3c(N4CCC(O)CC4)nc(OCC45CCCN4CCC5)nc3c2F)c2ccccc2c1 [Example 41, 1-[8-fluoro-2-(1,2,3,5,6,7-hexahydropyrrolizin-8-ylmethoxy)-7-(3-hydroxy-1-naphthyl)pyrido[4,3-d]pyrimidin-4-yl]piperidin-4-ol] | 7.00 to 8.00 | 7.00 to 8.00 | 7.00 to 8.00 | 7.00 to 8.00 | – | 7.00 to 8.00 | – | 5.00 to 7.00
11 | Oc1cc(-c2ncc3c(N4CC5CCC(C5)C4)nc(OCC45CCCN4CCC5)nc3c2F)c2ccccc2c1 [Example 47, 4-[4-(3-azabicyclo[3.2.1]octan-3-yl)-8-fluoro-2-(1,2,3,5,6,7-hexahydropyrrolizin-8-ylmethoxy)pyrido [4,3-d]pyrimidin-7-yl]naphthalen-2-ol] | 5.00 to 7.00 | 7.00 to 8.00 | 7.00 to 8.00 | 7.00 to 8.00 | – | 7.00 to 8.00 | – | 5.00 to 7.00
12 | Oc1cc(-c2ncc3c(N4CCCC5(COC5)C4)nc(OCC45CCCN4CCC5)nc3c2F)c2ccccc2c1 [Example 52, 4-[8-fluoro-2-(1,2,3,5,6,7-hexahydropyrrolizin-8-ylmethoxy)-4-(2-oxa-8-azaspiro[3.5]nonan-8-yl)pyrido[4,3-d]pyrimidin-7-yl]naphthalen-2-ol] | 7.00 to 8.00 | 7.00 to 8.00 | 7.00 to 8.00 | 7.00 to 8.00 | – | 7.00 to 8.00 | – | 5.00 to 7.00
13 | O=S1(=O)CCN(c2nc(OCC34CCCN3CCC4)nc3c(F)c(-c4cc(O)cc5ccccc45)ncc23)CCN1 [Example 59, 4-[4-(1,1-dioxo-1,2,5-thiadiazepan-5-yl)-8-fluoro-2-(1,2,3,5,6,7-hexahydropyrrolizin-8-ylmethoxy)pyrido [4,3-d]pyrimidin-7-yl]naphthalen-2-ol] | 5.00 to 7.00 | 5.00 to 7.00 | 5.00 to 7.00 | 5.00 to 7.00 | – | 5.00 to 7.00 | – | 5.00 to 7.00
14 | N#CC1CCN(c2nc(OCC34CCCN3CCC4)nc3c(F)c(-c4cc(O)cc5ccccc45)ncc23)CC1 [Example 65, 1-[8-fluoro-2-(1,2,3,5,6,7-hexahydropyrrolizin-8-ylmethoxy)-7-(3-hydroxy-1-naphthyl)pyrido[4,3-d]pyrimidin-4-yl]piperidine-4-carbonitrile] | 5.00 to 7.00 | 5.00 to 7.00 | 7.00 to 8.00 | 7.00 to 8.00 | – | 7.00 to 8.00 | – | 5.00 to 7.00
15 | Oc1cc(-c2ncc3c(N4CCCC(O)CC4)nc(OCC45CCCN4CCC5)nc3c2F)c2ccccc2c1 (stereo not drawn) [Example 70, 1-[8-fluoro-2-(1,2,3,5,6,7-hexahydropyrrolizin-8-ylmethoxy)-7-(3-hydroxy-1-naphthyl)pyrido[4,3-d]pyrimidin-4-yl]azepan-4-ol] | ≥ 8.00 | 7.00 to 8.00 | 7.00 to 8.00 | 7.00 to 8.00 | – | 7.00 to 8.00 | – | 5.00 to 7.00
16 | [O-][S+]1CCCN(c2nc(OCC34CCCN3CCC4)nc3c(F)c(-c4cc(O)cc5ccccc45)ncc23)CC1 (stereo not drawn) [Example 90, 4-[8-fluoro-2-(1,2,3,5,6,7-hexahydropyrrolizin-8-ylmethoxy)-4-(1-oxo-1,4-thiazepan-4-yl)pyrido[4,3-d]pyrimidin-7-yl]naphthalen-2-ol] | ≥ 8.00 | 7.00 to 8.00 | 7.00 to 8.00 | 7.00 to 8.00 | – | 7.00 to 8.00 | – | 5.00 to 7.00
